The experiment relates to NL-RLuc virus (recombinant HIV NL4-3 with Renilla Luciferase) in MT-2 cells. Nature of the experiment: Inhibition of HIV replication (NL-RLuc virus in MT-2 cells, luciferase readout). The format is cell-based, human immunodeficiency virus (HIV). From the text: Inhibition of HIV Replication:
A recombinant NL-RLuc proviral clone was constructed in which a section of the nef gene from NL4-3 was replaced with the Renilla Luciferase gene. This virus is fully infectious and can undergo multiple cycles of replication in cell culture. In addition, the luciferous reporter provides a simple and easy method for quantitating the extent of virus growth and consequently, the antiviral activity of test compounds. The plasmid pNLRLuc contains the proviral NL-Rluc DNA cloned into pUC 18 at the PvuII site. The NL-RLuc virus was prepared by transfection of 293T cells with the plasmid pNLRLuc. Transfections were performed using the LipofectAMINE PLUS kit from Invitrogen (Carlsbad, Calif.) according to the manufacturer and the virus generated was titered in MT-2 cells. For susceptibility analyses, the titrated virus was used to infect MT-2 cells in the presence of compound, and after 5 days of incubation, cells were processed and quantitated for virus growth by the amount of expressed luciferase. Assay media was RPMI 1640 supplemented with 10% heat inactivated fetal bovine serum (FBS), 100 units/ml penicillin G/100 units/ml streptomycin, 10 mM HEPES buffer pH 7.55 and 2 mM L-glutamine. The results from at least 2 experiments were used to calculate the EC50 values. Luciferase was quantitated using the Dual Luciferase kit from Promega (Madison, Wis.). Susceptibility of viruses to compounds was determined by incubation in the presence of serial dilutions of the compound. The 50% effective concentration (EC50) was calculated by using the exponential form of the median effect equation where (Fa)=1/[1+(ED50/drug conc.)^m] (Johnson V A, Byington R T. Infectivity Assay. In Techniques in HIV Research. ed. Aldovini A, Walker B D. 71-76. New York: Stockton Press. 1990).

The mark [1] stands for this setting: MT2, 120 h, NL-RLuc virus infecting MT-2 cells, 5 days of incubation, 10% FBS, luciferase quantitation, at least 2 experiments.
Where [2] appears, read: NL-RLuc virus infecting MT-2 cells, 5 days of incubation, 10% FBS, luciferase quantitation, at least 2 experiments, read-out: EC50.

The EC50 is the concentration at which the effect is half-maximal.

Read-outs that look alike come from different tables or passages of the source.

Consider `Cc1ccc2c(c1)O[C@@H](C)CCCCOC1(C)CCN(CC1)c1c([C@H](OC(C)(C)C)C(=O)O)c(C)nc3cc(nn13)COC2` [Example 38, (2S)-2-(tert-Butoxy)-2-[(20S)-4,16,20,26-tetramethyl-11,19,25-trioxa-1,5,7,8-tetraazapentacyclo[24.2.2.1^6,^9.0^2,^7.0^13,^18]hentriaconta-2,4,6(31),8,13(18),14,16-heptaen-3-yl]acetic acid], for which the EC50 under setting [1] turned out to be 2 nM.

`Cc1nc2cc3nn2c(c1[C@H](OC(C)(C)C)C(=O)O)N1CCC(C)(CC1)OCCCCOCc1ccccc1-c1cn(nn1)C3` [Example 5, (2S)-2-(tert-Butoxy)-2-{4,28-dimethyl-22,27-dioxa-1,5,7,8,11,12,13-heptaazahexacyclo[26.2.2.1^6,^9.1^11,^14.0^2,^7.0^15,^20]tetratriaconta-2,4,6(34),8,12,14(33),15(20),16,18-nonaen-3-yl}acetic acid]: under setting [1], the EC50 was 45 nM.

Regarding `Cc1cc(CN2CCCCOC3(C)CCN(CC3)c3c([C@H](OC(C)(C)C)C(=O)O)c(C)nc4cc(nn34)CNC(=O)C2=O)ccc1F` [Example 19, (2S)-2-(tert-Butoxy)-2-{14-[(4-fluoro-3-methylphenyl)methyl]-4,20-dimethyl-12,13-dioxo-19-oxa-1,5,7,8,11,14-hexaazatetracyclo[18.2.2.1^6,^9.0^2,^7]pentacosa-2,4,6(25),8-tetraen-3-yl}acetic acid], under setting [1], the half-maximal effective concentration (EC50) is 34 nM.

`Cc1nc2cc3nn2c(c1[C@H](OC(C)(C)C)C(=O)O)N1CCC(C)(CC1)OCCCCOC(C(C)C)c1cn(nn1)C3` (stereo partly drawn) [Example 10, (2S)-2-(tert-Butoxy)-2-[4,22-dimethyl-15-(propan-2-yl)-16,21-dioxa-1,5,7,8,11,12,13-heptaazapentacyclo[20.2.2.1^6,^9.1^11,^14.0^2,^7]octacosa-2,4,6(28),8,12,14(27)-hexaen-3-yl]acetic acid]: the EC50 under setting [1] was determined as 251 nM.

Take `Cc1ccc2c(c1)O[C@@H](C)C/C=C/COC1(C)CCN(CC1)c1c([C@H](OC(C)(C)C)C(=O)O)c(C)nc3cc(nn13)COC2` [Example 37, (2S)-2-(tert-Butoxy)-2-[(20S,22E)-4,16,20,26-tetramethyl-11,19,25-trioxa-1,5,7,8-tetraazapentacyclo[24.2.2.1^6,^9.0^2,^7.0^13,^18]hentriaconta-2,4,6(31),8,13(18),14,16,22-octaen-3-yl]acetic acid]: under setting [2], the EC50 was determined as 4 nM.

Regarding `Cc1ccc2c(c1)COCc1cc3nc(C)c([C@H](OC(C)(C)C)C(=O)O)c(n3n1)N1CCC(C)(CC1)OCCCC[C@H](C)O2` [Example 30, (2S)-2-(tert-Butoxy)-2-[(20S)-4,15,20,26-tetramethyl-11,19,25-trioxa-1,5,7,8-tetraazapentacyclo[24.2.2.1^6,^9.0^2,^7.0^13,^18]hentriaconta-2,4,6(31),8,13,15,17-heptaen-3-yl]acetic], the EC50 under setting [1] was determined as 64 nM.

As for `Cc1nc2cc3nn2c(c1[C@H](OC(C)(C)C)C(=O)O)N1CCC(C)(CC1)OCCCC[C@@H](COCc1ccccc1)OC3` [Example 48, (2S)-2-[(12S)-12-[(benzyloxy)methyl]-4,18-dimethyl-11,17-dioxa-1,5,7,8-tetraazatetracyclo[16.2.2.1^6,^9.0^2,^7]tricosa-2,4,6(23),8-tetraen-3-yl]-2-(tert-butoxy)acetic acid], the EC50 under setting [1] amounted to 111 nM.

With `Cc1nc2cc3nn2c(c1[C@H](OC(C)(C)C)C(=O)O)N1CCC(C)(CC1)OCCCC[C@H](C)Oc1c(F)cc(F)cc1CCC3` [Example 41, (2S)-2-(tert-Butoxy)-2-[(20S)-15,17-difluoro-4,20,26-trimethyl-19,25-dioxa-1,5,7,8-tetraazapentacyclo[24.2.2.1^6,^9.0^2,^7.0^13,^18]hentriaconta-2,4,6(31),8,13(18),14,16-heptaen-3-yl]acetic acid], the EC50 under setting [1] turned out to be 10 nM.

As for `Cc1nc2cc3nn2c(c1[C@H](OC(C)(C)C)C(=O)O)N1CCC(C)(CC1)OCCCCOC(CC(C)C)c1cn(nn1)C3` (stereo partly drawn) [Example 12, (2S)-2-(tert-Butoxy)-2-[4,22-dimethyl-15-(2-methylpropyl)-16,21-dioxa-1,5,7,8,11,12,13-heptaazapentacyclo[20.2.2.1^6,^9.1^11,^14.0^2,^7]octacosa-2,4,6(28),8,12,14(27)-hexaen-3-yl]acetic acid], the EC50 under setting [1] was 136 nM.

Turning to `Cc1nc2cc3nn2c(c1[C@H](OC(C)(C)C)C(=O)O)N1CCC(C)(CC1)OCCCCOCc1cn(nn1)C3` [Example 2, (2S)-2-(tert-Butoxy)-2-{4,22-dimethyl-16,21-dioxa-1,5,7,8,11,12,13-heptaazapentacyclo[20.2.2.1^6,^9.1^11,^14.0^2,^7]octacosa-2,4,6(28),8,12,14(27)-hexaen-3-yl}acetic acid], under setting [1], the EC50 was 2690 nM.

Regarding `Cc1nc2cc3nn2c(c1[C@H](OC(C)(C)C)C(=O)O)N1CCC(C)(CC1)OCC=CC[C@H](C)Oc1cc(F)c(F)cc1COC3` [Example 33, (2S)-2-(tert-Butoxy)-2-[(20S)-15,16-difluoro-4,20,26-trimethyl-11,19,25-trioxa-1,5,7,8-tetraazapentacyclo[24.2.2.1^6,^9.0^2,^7.0^13,^18]hentriaconta-2,4,6(31),8,13,15,17,22-octaen-3-yl]acetic acid], the EC50 under setting [1] stood at 6 nM.

As for `Cc1nc2cc3nn2c(c1[C@H](OC(C)(C)C)C(=O)O)N1CCC(C)(CC1)OCCCC[C@H](C)Oc1ccc(F)c(F)c1CCC3` [Example 42, (2S)-2-(tert-Butoxy)-2-[(20S)-14,15-difluoro-4,20,26-trimethyl-19,25-dioxa-1,5,7,8-tetraazapentacyclo[24.2.2.1^6,^9.0^2,^7.0^13,^18]hentriaconta-2,4,6(31),8,13(18),14,16-heptaen-3-yl]acetic acid], under setting [1], the EC50 turned out to be 2 nM.

`Cc1nc2cc3nn2c(c1[C@H](OC(C)(C)C)C(=O)O)N1CCC(C)(CC1)O/C=C\CCc1ccccc1OC3` [Example 21, (2S)-2-(tert-Butoxy)-2-[(20Z)-4,23-dimethyl-11,22-dioxa-1,5,7,8-tetraazapentacyclo[21.2.2.1^6,^9.1^2,^7.0^12,^17]octacosa-2,4,6(28),8,12(17),13,15,20-octaen-3-yl]acetic acid]: the EC50 under setting [2] was 646 nM.

Turning to `Cc1nc2cc3nn2c(c1[C@H](OC(C)(C)C)C(=O)O)N1CCC(C)(CC1)OCCCc1cc(F)ccc1COC3` [Example 67, (2S)-2-(tert-Butoxy)-2-{16-fluoro-4,23-dimethyl-11,22-dioxa-1,5,7,8tetraazapentacyclo[21.2.2.1^6,^9.0^2,^7.0^13,^18]octacosa-2,4,6(28),8,13(18),14,16-heptaen-3-yl}acetic acid], the EC50 under setting [1] turned out to be 5 nM.

As to “(2S)-2-(tert-Butoxy)-2-[4,22-dimethyl-15-(propan-2-yl)-16,21-dioxa-1,5,7,8,11,12,13-heptaazapentacyclo[20.2.2.1^6,^9.1^11,^14.0^2,^7]octacosa-2,4,6(28),8,12,14(27),19-heptaen-3-yl]acetic acid [Example 9]”, the EC50 under setting [2] came out at 93 nM.

Take `Cc1nc2cc3nn2c(c1[C@H](OC(C)(C)C)C(=O)O)N1CCC(C)(CC1)OCCCCOC(C(C)C)c1cn(nn1)C3` (stereo partly drawn) [Example 11, (2S)-2-(tert-Butoxy)-2-[4,22-dimethyl-15-(propan-2-yl)-16,21-dioxa-1,5,7,8,11,12,13-heptaazapentacyclo[20.2.2.1^6,^9.1^11,^14.0^2,^7]octacosa-2,4,6(28),8,12,14(27)-hexaen-3-yl]acetic acid]: where the note is “{}”, the EC50 came out at 204 nM.
